Test [1] concerns airway epithelial cells. In words: In vitro clonogenic potential and colony-forming ability with Rho kinase inhibitor HA1077. It counts as cell-based. Particulars: FIG. 11. From the text:
FIG. 11. […] P53 and ROCK regulate epithelial colony-forming ability and “stemness”. Tp53 (p53) is a tumor suppressor that is one of the most commonly mutated genes in cancer. In addition to its classical functions of regulating cell fate following cellular stress, p53 regulates migration, autophagy, metabolism, and tumor microenvironment signaling. p53 regulates self-renewal and terminal differentiation of both neural and mammary stem cells in vitro, and of hematopoietic and kidney stem/progenitor cells in vivo. In the Inventors' previous work the Inventors have shown that loss of p53 function promotes stem cell renewal in vivo and leads to a dramatic increase in colony-forming epithelial progenitor cells in vitro. The impact of p53 loss-of-function on airway epithelial in vitro colony-forming ability can be phenocopied by pharmacologic inhibition of Rho kinase (ROCK). Experiments proposed in the Inventors' application will use transient pharmacologic modulation of ROCK and p53 as tools to enhance survival and “sternness” of transplanted epithelial cells and overcome the need for co-transplanted structural lung cells for their efficient engraftment.

For test [2], the system named is freshly isolated murine distal total epithelial cells. In words: 3D organoid culture of freshly isolated murine distal total epithelial cells. It counts as cell-based. Conditions: for % colony forming efficiency: freshly isolated murine lung epithelial cells, addition to the culture medium (FIG. 3). The text has this:
(§1) FIG. 1. Experimental design. Preconditioning of donor cells, including addition of small molecules such as ROCK inhibitor, pifithrin α, or combined together, and generation of organoids.
FIG. 3. […] Addition of the TGF-β inhibitor, SB 431542 to the culture medium increases the % colony forming efficiency of freshly isolated murine lung epithelial cells. Addition of Pifithrin α causes an increase in organoids size, while addition of ROCKi causes an increase in the colony forming efficiency.
FIG. 13. Effect of p53 and ROCKi inhibition on murine freshly isolated distal total epithelial cells in (+SB431542). Addition of both ROCKi and Pifithrin alpha (in presence of SB431542) increases the colony forming efficiency of freshly isolated murine distal total epithelial cells (isolated from the lung without trachea). […] Pifithrin alpha also causes an increase in the size of the organoids (C). […] The drop in mean diameter of the Pifithrin alpha+ROCKi group is likely due to space constraints because of the large number of organoids per well.
Further described herein is a cell culture including a quantity of human stem cells, or stem cell derived cells in a cell culture media including at least one molecule including: a RHO-kinase (ROCK) inhibitor, SMAD inhibitor, and p53 inhibitor. In other embodiments, the RHO-kinase inhibitor is Y27632 and the p53 inhibitor is Pifithrin α. In other embodiments, the stem cells are adult stem cells. In other embodiments, the stem cell derived cells are lung epithelial cells. In various embodiments, the aforementioned inhibitors are at a concentration of 0.1-1 uM, 1-5 uM, 5-10 uM, 10-25 uM, 25-50 uM, or 50 uM or more. In various embodiments, the p53 inhibitor is Pifithrin-alpha. For example, this includes a media formulated as follows: 5 mL FBS, 500 uL ITS (100×), 50 uL Fungizone, 500 uL Pen/Strep (100×), DMEM/F12 up to 50 mL, 5 uL SB431542, Pifithrin-alpha 10 uM, ROCKi (Y-27632 dihydrochloride)—10 uM. Also described herein is a quantity of organoids including cells made by the aforementioned methods. In various embodiments, the organoids include proximal and/or distal cells. In various embodiments, the distal cells are alveolar type II progenitors and/or Scgb1a1 positive club progenitor cells.

For test [3], the system named is freshly isolated club cells. Put plainly: Organoid culture of lineage labelled murine club cells. In kind it is cell-based. Particulars: GFP+ club cells, in presence of SB431542. From the text: FIG. 17. Effect of ROCK and P53 inhibition on lineage labelled murine club cells. GFP^+ club cells were isolated from tamoxifen treated Scgb1a1-CreER/ROSARG mice. Addition of ROCKi (in presence of SB431542) increases the colony forming efficiency of freshly isolated club cells (regional stem cells which maintain certain cell types in the bronchiolar epithelium) whereas addition of Pifithrin alpha (in presence of SB431542) increases the size of Scgb1a1-derived organoids.
(§2) Distal progenitor cells were cultured as 3D organoids for 14 days in presence of Pifithrin-alpha, ROCKi and SB431542 followed by culture for 7 days in media without all three inhibitors. […] Addition of ROCKi (in presence of SB431542) increases the colony forming efficiency of freshly isolated club cells (regional stem cells which maintain certain cell types in the bronchiolar epithelium) whereas addition of Pifithrin alpha (in presence of SB431542) increases the size of Scgb1a1-derived organoids. Addition of both ROCKi (in presence of SB431542) increases the colony forming efficiency of freshly isolated murine proximal total epithelial cells (isolated from the murine trachea).

The test system of test [4] is distal progenitor cells. Put plainly: Differentiation potential of distal progenitors after 3D organoid culture with inhibitors. It counts as cell-based. Particulars: 14 days with Pifithrin-alpha, ROCKi and SB431542, then 7 days without inhibitors, PDPN and SPC staining. As for the experimental part:
FIG. 16. […] Distal progenitor cells were cultured as 3D organoids for 14 days in presence of Pifithrin-alpha, ROCKi and SB431542 followed by culture for 7 days in media without all three inhibitors. […] DAPI (blue) is a nuclear stain.
as §2

Test [5] has as its system freshly isolated murine proximal total epithelial cells. Put plainly: Organoid culture of murine tracheal progenitor (basal) cells. It counts as cell-based. On the procedure:
FIG. 18. Effect of ROCK and P53 inhibition on murine tracheal progenitor (basal) cells. Addition of both ROCKi (in presence of SB431542) increases the colony forming efficiency of freshly isolated murine proximal total epithelial cells (isolated from the murine trachea).
as §2

For test [6], the system named is human bronchial epithelial stem cells. Particulars: inhibition of ROCK1 and 2; cited from earlier work.
Test [7] concerns freshly isolated alveolar type II cells. Put plainly: Organoid culture of lineage labelled murine alveolar type II cells. In kind it is cell-based. Particulars: GFP+ alveolar type II cells, in presence of SB431542. The text has this:
FIG. 15. Effect of ROCK and P53 inhibition on lineage labelled murine alveolar type II cells. GFP^+ alveolar type II cells were isolated from tamoxifen treated SPC-CreER/ROSARG mice. Addition of both ROCKi and Pifithrin alpha (in presence of SB431542) increases the colony forming efficiency of freshly isolated alveolar typeII cells (regional stem cells which maintain the epithelium of the air sacs in the lung). The effect is synergistic for their combined use, similar to that seen for total distal epithelial cells in the previous figures.
(§3) ROCKi increases the colony forming efficiency when murine distal total epithelial cells (isolated from the lung without trachea) are pre-cultured on collagen coated plates for 24 hrs prior after initial isolation. The effect on size is more pronounced when cells are precultured for 24 hrs on collagen coated plates after initial isolation. The drop in CFE in the Pifithrin alpha+ROCKi group is likely due space and nutrient availability constraints due to the large number of organoids per well. Addition of both ROCKi and Pifithrin alpha (in presence of SB431542) increases the colony forming efficiency of freshly isolated alveolar type II cells (regional stem cells which maintain the epithelium of the air sacs in the lung). The effect is synergistic for their combined use, similar to that seen for total distal epithelial cells in the previous figures.

The subject of test [8] is freshly isolated cells. Put plainly: Freshly isolated cells cultured with small molecules at different time points (proliferation). It counts as cell-based. Conditions: different time points (FIG. 2).
Source text: as §1
FIG. 2. Freshly isolated cells cultured with small molecules at different time points.

Test [9] concerns murine pre-cultured distal total epithelial cells. In words: 3D organoid culture of murine distal total epithelial cells pre-cultured 24 hrs on collagen coated plates. It counts as cell-based. Conditions: pre-cultured on collagen coated plates for 24 hrs after isolation, +SB431542; dihydrochloride.
Source text: FIG. 4. Effect of pre-culturing—Day 3. Pre-culturing cells on collagen coated plates for 24 hrs after initial isolation increases the rate of organoid formation, with organoids being visible as early as day 3 in culture.
FIG. 5. Effect of pre-culturing—Day 8. Addition of Pifithrin α causes an increase in organoids size, while addition of ROCKi causes an increase in the colony forming efficiency. This effect is more pronounced when cells are pre-cultured for 24 hrs on collagen coated plates after initial isolation.
FIG. 14. Effect of inhibitors on murine pre-cultured distal total epithelial cells in (+SB431542). Addition Pifithrin alpha increases organoid size while addition of ROCKi increases the colony forming efficiency when murine distal total epithelial cells (isolated from the lung without trachea) are pre-cultured on collagen coated plates for 24 hrs prior after initial isolation. The effect on size is more pronounced when cells are precultured for 24 hrs on collagen coated plates after initial isolation. The drop in CFE in the Pifithrin alpha+ROCKi group is likely due space and nutrient availability constraints due to the large number of organoids per well.
as §3

Test [10] relates to Scgb1a1 immunoreactive cells. In words: Club cell ablation by gancyclovir in Scgb1a1-HSVtk transgenic mice. In kind it is in vivo. Particulars: 12.5 mg total delivered dose through miniosmotic pump, 7 days post-treatment. On the procedure: FIG. 9. Orthotopic cell transplantation. Scgb1a1-HSVtk transgenic mice were exposed to gancyclovir delivered through miniosmotic pump and club cell ablation monitored by immunofluorescence. A dose of 12.5 mg gancyclovir (total delivered dose) led to >90% loss of Scgb1a1 immunoreactive cells 7 days post-treatment (red immunofluorescence in panel A). Total lung cells were isolated from ROSA-GFP mice and 1×10^6 cells transplanted into lungs of gancyclovir-treated mice that received i.t. chlodronate-containing liposomes for depletion of macrophages. Transplanted cells are shown in green in B and C, with cell type-specific markers shown by red immunofluorescence in C. Transplantation of 1×10^6 ROSA-mT lung cells (total cells following depletion of CD45+ fraction) into recipient lung tissue pre-conditioned by 6 Gy X-Rays led to efficient engraftment as shown by light sheet microscopy 2 weeks post transplant (D). The Inventors' initial efforts to develop a protocol for functional engraftment of transplanted epithelial stem cells involved sequential ablation of club cells through delivery of gancyclovir to Scgb1a1-HSVtk trangenic mice followed by delivery of liposome encapsulated chlodronate to deplete macrophages (FIG. 9A-C). […] Difficulties with this model were lack of translatability and poor survival of recipient mice. […]

“Also recorded” adds a separate entry of the source.

With `O=S(=O)(c1cccc2cnccc12)N1CCCNCC1` [HA1077], in test [1], the colony-forming ability entry was “without altering” and the “in vitro clonogenic potential” value is “increases”.
Take `C[C@@H](N)[C@H]1CC[C@H](C(=O)Nc2ccncc2)CC1.Cl.Cl` [ROCKi, Y-27632 dihydrochloride]: the colony forming efficiency result in test [2] (freshly isolated cells, in presence of SB431542 (FIG. 13)) was “increases”; in test [3] it was “increases”; in test [5] (cells isolated from the murine trachea, in presence of SB431542), “increases”; in test [7], “increases”; in test [9], “increase”. For the same molecule, the “survival and proliferation of the stem cells (inferred from CFE and organoid size)” value in test [2] (freshly isolated distal cells, FIG. 13) is listed as “increase survival”. Besides, the “% colony forming efficiency” value in [2] was “increase”. Also, in test [4] (dihydrochloride), the differentiation potential result was “did not alter; also recorded: do not alter”. In [5] (comparison of proximal and distal progenitor cell types, dihydrochloride), the “survival of proximal and distal progenitors (inferred from colony forming ability)” value is “increase survival of both proximal and distal progenitors; also recorded: increases survival”. In [6], the “survival and expansion of human bronchial epithelial stem cells” value is “promote survival and expansion”. Also, the “size of the alveolar organoids” value in [7] is “does not increase”. Besides, in [8], the proliferation of cells result is given as “have an effect on proliferation”.
With `NC(=O)c1ccc(-c2nc(-c3ccc4c(c3)OCO4)c(-c3ccccn3)[nH]2)cc1` [SB 431542], the “% colony forming efficiency” value in [2] is “increases”. Further, the differentiation potential entry in [4] was “did not alter”.
As for `Nc1nc(O)c2ncn(COC(CO)CO)c2n1` [gancyclovir], the “loss of Scgb1a1 immunoreactive cells” value in [10] is given as > 90%.

Values taken from patent publication US20210147811A1, “METHODS FOR IN VITRO EXPANSION OF ADULT TISSUE STEM CELLS” (CEDARS-SINAI MEDICAL CENTER, priority 2018, published 2021).
